Reference: the supplement of paper PMC10307832

How the values were obtained:
Assay in all cases: relative viability (nuclei count vs DMSO), 5 days (fraction); higher = more cells survive
ALW-II-49-7 + Luminespib = compound: Cc1ccc(C(=O)Nc2cccc(C(F)(F)F)c2)cc1Nc1cncc(C(N)=O)c1 [ALW-II-49-7] + CCNC(=O)c1noc(-c2cc(C(C)C)c(O)cc2O)c1-c1ccc(CN2CCOCC2)cc1 [Luminespib] (partner 0.01 µM)
Procedure, shortened: (§1)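 Values are medians from duplicate plates. Each reflects relative viability, defined as the nuclei count of treated wells over that of vehicle wells. Lung cancer cell lines in 1536-well plates were pin-tool dosed one day after seeding with one drug alone or with a fixed anchor-drug dose plus five library-drug doses (not always all listed) in √10 steps, then fixed, stained and imaged at 4× after 5 days.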

Dasatinib + OSI-027 = compound: Cc1nc(Nc2ncc(C(=O)Nc3c(C)cccc3Cl)s2)cc(N2CCN(CCO)CC2)n1 [Dasatinib] + COc1cccc2cc(-c3nc([C@H]4CC[C@H](C(=O)O)CC4)n4ncnc(N)c34)[nH]c12 [OSI-027] (partner 0.5 µM)
Procedure, shortened: as §1

Dasatinib + Phenformin = compound: Cc1nc(Nc2ncc(C(=O)Nc3c(C)cccc3Cl)s2)cc(N2CCN(CCO)CC2)n1 [Dasatinib] + N=C(N)NC(=N)NCCc1ccccc1 [Phenformin] (partner 250 µM)
Procedure, shortened: as §1

XMD13-2 + Tozasertib = compound: C1CC1C(=O)NC2=NNC3=C2C=CC(=C3)C4=CC(=CC=C4)C(=O)NC5CC5 [XMD13-2] + Cc1cc(Nc2cc(N3CCN(C)CC3)nc(Sc3ccc(NC(=O)C4CC4)cc3)n2)n[nH]1 [Tozasertib] (partner 0.1 µM)
Procedure, shortened: as §1

| Cell Line | relative viability (ALW-II-49-7 + Luminespib; first compound 0.08 µM) | relative viability (ALW-II-49-7 + Luminespib; first compound 0.253 µM) | relative viability (ALW-II-49-7 + Luminespib; first compound 0.8 µM) | relative viability (ALW-II-49-7 + Luminespib; first compound 2.53 µM) | relative viability (ALW-II-49-7 + Luminespib; first compound 8 µM) | relative viability (Dasatinib + OSI-027; first compound 0.005 µM) | relative viability (Dasatinib + OSI-027; first compound 0.01581 µM) | relative viability (Dasatinib + OSI-027; first compound 0.05 µM) | relative viability (Dasatinib + OSI-027; first compound 0.1581 µM) | relative viability (Dasatinib + OSI-027; first compound 0.5 µM) | relative viability (Dasatinib + Phenformin; first compound 0.005 µM) | relative viability (Dasatinib + Phenformin; first compound 0.01581 µM) | relative viability (Dasatinib + Phenformin; first compound 0.05 µM) | relative viability (Dasatinib + Phenformin; first compound 0.1581 µM) | relative viability (Dasatinib + Phenformin; first compound 0.5 µM) | relative viability (XMD13-2 + Tozasertib; first compound 0.05 µM) | relative viability (XMD13-2 + Tozasertib; first compound 0.1581 µM) | relative viability (XMD13-2 + Tozasertib; first compound 0.5 µM) | relative viability (XMD13-2 + Tozasertib; first compound 1.581 µM) | relative viability (XMD13-2 + Tozasertib; first compound 5 µM) |
| --- | --- | --- | --- | --- | --- | --- | --- | --- | --- | --- | --- | --- | --- | --- | --- | --- | --- | --- | --- | --- |
| LXF-289 | 0.731 | 0.626 | 0.825 | 0.688 | 0.848 | 0.812 | 0.733 | 0.567 | 0.323 | 0.125 | 0.543 | 0.512 | 0.414 | 0.34 | 0.0987 | 0.232 | 0.195 | 0.194 | 0.208 | 0.177 |
| NCI-H23 | 0.188 | 0.22 | 0.228 |  | 0.191 | 0.497 | 0.502 | 0.615 | 0.492 | 0.325 | 0.841 | 0.752 | 0.929 | 0.655 | 0.607 | 0.325 | 0.382 | 0.397 | 0.644 | 0.355 |
| NCI-H322M | 0.897 | 0.762 | 0.965 | 0.868 | 0.833 | 0.549 | 0.483 | 0.351 | 0.213 | 0.168 | 0.604 | 0.61 | 0.443 | 0.206 | 0.195 | 0.563 | 0.52 | 0.456 | 0.456 | 0.517 |
| NCI-H358 | 0.272 | 0.318 | 0.244 | 0.322 | 0.245 | 0.806 | 0.542 | 0.439 | 0.149 | 0.122 | 0.301 | 0.247 | 0.264 | 0.156 | 0.157 | 0.126 | 0.121 | 0.102 | 0.114 | 0.0991 |
| NCI-H441 | 0.332 | 0.32 | 0.313 | 0.35 | 0.243 | 0.784 | 0.582 | 0.742 | 0.424 | 0.307 | 0.921 | 0.912 | 0.862 | 0.547 | 0.401 | 0.808 | 0.652 | 0.608 | 0.591 | 0.53 |
| NCI-H460 | 0.0293 | 0.0319 | 0.0397 | 0.0303 | 0.0275 | 0.549 | 0.474 | 0.405 | 0.387 | 0.17 | 0.47 | 0.484 | 0.443 | 0.336 | 0.314 | 0.529 | 0.407 | 0.472 | 0.474 | 0.415 |
| NCI-H520 | 0.219 | 0.216 | 0.232 | 0.206 | 0.237 | 0.24 | 0.144 | 0.158 | 0.151 | 0.133 | 0.481 | 0.339 | 0.255 | 0.181 | 0.179 | 0.495 | 0.491 | 0.515 | 0.395 | 0.462 |
| NCI-H522 | 1.41 | 1.05 | 1.08 | 1.15 | 1.18 | 0.72 | 0.69 | 0.643 | 0.596 | 0.632 | 0.634 | 0.625 | 0.587 | 0.599 | 0.5 | 0.531 | 0.651 | 0.593 | 0.483 | 0.412 |
| NCI-H596 | 0.929 | 0.943 | 1.18 | 1.1 | 1.12 | 0.656 | 0.632 | 0.547 | 0.479 | 0.306 | 0.728 | 0.52 | 0.712 | 0.44 | 0.402 | 0.901 | 0.942 | 0.816 | 0.89 | 1.03 |
| NCI-H647 | 0.134 | 0.206 | 0.236 | 0.167 | 0.154 | 0.672 | 0.303 | 0.251 | 0.213 | 0.118 | 0.465 | 0.366 | 0.257 | 0.197 | 0.141 | 0.585 | 0.265 | 0.176 | 0.229 | 0.135 |
| NCI-H650 | 0.853 | 0.972 | 0.632 | 0.722 | 0.526 | 0.591 | 0.524 | 0.493 | 0.303 | 0.265 | 0.496 | 0.438 | 0.433 | 0.375 | 0.317 | 0.783 | 0.748 | 0.781 | 0.716 | 0.723 |
| NCI-H661 | 1.04 | 1.01 | 0.913 | 0.976 | 0.998 | 0.686 | 0.604 | 0.586 | 0.522 | 0.402 | 0.266 | 0.222 | 0.249 | 0.226 | 0.243 | 0.335 | 0.307 | 0.33 | 0.36 | 0.427 |
| NCI-H727 | 0.419 | 0.336 | 0.392 | 0.367 | 0.239 | 0.6 | 0.488 | 0.45 | 0.295 | 0.197 | 0.399 | 0.461 | 0.375 | 0.262 | 0.235 | 0.577 | 0.652 | 0.666 | 0.617 | 0.627 |
| NCI-H838 | 0.233 | 0.257 | 0.344 | 0.272 | 0.211 | 0.409 | 0.266 | 0.265 | 0.252 | 0.179 | 0.481 | 0.387 | 0.302 | 0.204 | 0.176 | 0.277 | 0.27 | 0.263 | 0.293 | 0.247 |
| NCI-H1355 | 0.722 | 0.628 | 0.658 | 0.562 | 0.708 | 0.434 | 0.291 | 0.287 | 0.272 | 0.271 | 0.435 | 0.391 | 0.432 | 0.352 | 0.325 | 0.64 | 0.631 | 0.638 | 0.548 | 0.589 |
| NCI-H1395 | 0.754 | 0.796 | 0.823 | 0.716 | 0.706 | 0.615 | 0.7 | 0.541 | 0.361 | 0.35 | 0.398 | 0.435 | 0.369 | 0.305 | 0.304 | 0.716 | 0.735 | 0.796 | 0.787 | 0.807 |
| NCI-H1437 | 1.13 | 1.12 | 1.11 | 1.08 | 1.06 | 1.01 | 0.863 | 0.837 | 0.798 | 0.365 | 0.322 | 0.207 | 0.261 | 0.222 | 0.148 | 0.427 | 0.438 | 0.411 | 0.395 | 0.404 |
| NCI-H1623 | 0.518 | 0.428 | 0.431 | 0.561 | 0.698 | 0.423 | 0.393 | 0.396 | 0.462 | 0.339 | 0.568 | 0.564 | 0.526 | 0.413 | 0.349 | 0.5 | 0.456 | 0.437 | 0.42 | 0.483 |
| NCI-H1650 | 0.199 | 0.169 | 0.209 | 0.19 | 0.206 | 0.571 | 0.355 | 0.318 | 0.219 | 0.171 | 0.401 | 0.302 | 0.319 | 0.217 | 0.178 | 0.439 | 0.36 | 0.471 | 0.381 | 0.588 |
| NCI-H1651 | 0.637 | 0.802 | 0.801 | 0.644 | 0.876 | 0.801 | 0.503 | 0.529 | 0.572 | 0.487 | 0.355 | 0.285 | 0.308 | 0.35 | 0.241 | 0.721 | 0.807 | 0.64 | 0.759 | 0.672 |
| NCI-H1666 | 0.951 | 0.999 | 1.04 | 1.12 | 1 | 0.915 | 0.843 | 0.849 | 0.733 | 0.486 | 0.517 | 0.26 | 0.548 | 0.498 | 0.451 | 0.662 | 0.602 | 0.595 | 0.623 | 0.518 |
| NCI-H1734 | 0.209 | 0.177 | 0.169 | 0.181 | 0.186 | 0.562 | 0.432 | 0.476 | 0.411 | 0.307 | 0.314 | 0.328 | 0.288 | 0.249 | 0.235 | 0.258 | 0.245 | 0.271 | 0.228 | 0.205 |
| NCI-H1755 | 0.341 | 0.497 | 0.421 | 0.283 | 0.268 | 0.679 | 0.604 | 0.507 | 0.384 | 0.191 | 0.477 | 0.46 | 0.423 | 0.352 | 0.218 | 0.664 | 0.575 | 0.498 | 0.543 | 0.494 |
| NCI-H1793 | 0.146 | 0.197 | 0.195 | 0.177 | 0.175 | 0.2 | 0.238 | 0.234 | 0.218 | 0.147 | 0.319 | 0.314 | 0.313 | 0.264 | 0.2 | 0.432 |  | 0.334 | 0.379 | 0.322 |
| NCI-H1915 | 0.745 | 0.612 | 0.679 | 0.493 | 0.441 | 0.559 | 0.516 | 0.463 | 0.187 | 0.164 | 0.339 | 0.313 | 0.266 | 0.17 | 0.164 | 0.48 | 0.488 | 0.48 | 0.412 | 0.335 |
| NCI-H1944 | 0.884 | 0.805 | 0.796 | 0.815 | 0.738 | 0.365 | 0.404 | 0.284 | 0.179 | 0.174 | 0.185 | 0.149 | 0.15 | 0.154 | 0.123 | 0.275 | 0.243 | 0.229 | 0.239 | 0.221 |
